# What was measured:
# C57BL/6 mice [1] = experiment: Open field test (OFT); assay type: in vivo; settings: for time spent in the center of the arena in OFT (anxiety level) / number of total line crossings in OFT (locomotor activity): i.p. pretreatment, 10 min test session; for time spent in the center of the arena in OFT (anxiety level): ST-2300 10 or 15 mg/kg, PIM 5–15 mg/kg, DZP 1 mg/kg, vs controls; for number of total line crossings in OFT (locomotor activity): ST-2300 or PIM 5–15 mg/kg, C57BL/6 mice
# Method: (§1) Inbred adult male C57BL/6 mice (aged 10–12 weeks and weighing 20–25 g) were obtained from the animal facility in the College of Medicine and Health Sciences, United Arab Emirates University. The animals were maintained in a separate air-conditioned room with controlled temperature and humidity (24 ± 2 °C and 55 ± 15%, respectively), with a 12 h light/dark cycle, and ad libitum to food and water. All the experiments were performed between 9.00 am and 3.00 pm. The procedures were approved by the Institutional Animal Ethics Committee of College of Medicine and Health Sciences/United Arab Emirates University (Approval No. ERA-2019-6010). To reduce the suffering of the animals, a minimum number of animals were used in this study, whereas the objectives were not compromised.
# (§2) These experiments provide the first behavioral assessment of the ST-2300 in anxiety-like and depression-like behaviors in mice. All doses are expressed in terms of the free base of all test compounds. The drugs used in the current study were dissolved in saline and injected i.p. at a volume of 1 mL/kg. All experimental procedures were conducted in a blinded fashion in which the experimenter was uninformed about the specific treatment groups to which an animal group belonged. Saline, ST-2300 (5, 10, and 15 mg/kg), PIM (5, 10, and 15 mg/kg), FLX (10 mg/kg), RAM (10 mg/kg), and DZP (1 mg/kg) were injected i.p. 30–45 min before the beginning of the behavioral experiments.
# To analyze the effect of ST-2300 on locomotion and anxiety behaviors in animals, OFT was carried out. In addition to locomotor activity, the OFT is usually used to measure anxiety-like behaviors in experimental rodents. The test provides a unique opportunity to systematically assess novel environment exploration, general locomotor activity, and provide an initial screen for anxiety-related behavior in experimental rodents. The OF box consisted of a square box (45 × 45 × 30 cm). A 23 × 23 cm area in the center region was defined as the central arena, and the remaining area was defined as periphery area. The mice with a higher degree of anxiety prefer to stay closer to the walls of the box and spend less time in the center, whereas increased time spent in the central area indicates low anxiety level and high exploratory behaviors. The first 5 min of the experiment were considered as habituation, followed by 10 min test session. Total distance moved in the whole arena, time spent in the center, and in the periphery were recorded for 10 min using a charge-coupled, camera-assisted, motion-tracking apparatus and software (EthoVision 3.1, Noldus Information Technology, Wageningen, The Netherlands). After each mouse completed the test, the OF chamber was cleaned thoroughly with 70% (volume/volume; vol/vol) alcohol.
# C57BL/6 mice [2] = experiment: Tail suspension test (TST); assay type: in vivo; settings: for immobility time in TST: acute i.p. pretreatment, ST-2300 10 or 15 mg/kg, PIM 5–15 mg/kg, FLX 10 mg/kg, vs saline controls, C57BL/6 mice, 6 min
# Method: as §1, §2
# This experimental protocol was followed as previously described, however with slight modifications. Each mouse was suspended on the edge of a rod 50 cm above a table top using adhesive Scotch tape placed approximately 1 cm from the tip of the tail. Tail climbing was prevented by passing the mouse’s tail through a small plastic cylinder prior to suspension, as described by Can et al.. The duration of immobility was manually scored for a 6 min observation period. Mice were considered immobile only when they hung down passively and were completely motionless. The parameter recorded was the number of seconds spent immobile.
# human 5-HT6 = target: T1, human 5-HT6 (Homo sapiens, UniProt P50406); experiment: Radioligand displacement assay at 5-HT6 ([3H]-LSD, HEK293 cells); assay type: binding; settings: HEK293 cells stably expressing h5-HT6, read-out: Ki ± SD (n), 5-HT6
# T1 construct: expressed in transfected cells; host or cells: HEK293
# T1 sequence (P50406 whole entry): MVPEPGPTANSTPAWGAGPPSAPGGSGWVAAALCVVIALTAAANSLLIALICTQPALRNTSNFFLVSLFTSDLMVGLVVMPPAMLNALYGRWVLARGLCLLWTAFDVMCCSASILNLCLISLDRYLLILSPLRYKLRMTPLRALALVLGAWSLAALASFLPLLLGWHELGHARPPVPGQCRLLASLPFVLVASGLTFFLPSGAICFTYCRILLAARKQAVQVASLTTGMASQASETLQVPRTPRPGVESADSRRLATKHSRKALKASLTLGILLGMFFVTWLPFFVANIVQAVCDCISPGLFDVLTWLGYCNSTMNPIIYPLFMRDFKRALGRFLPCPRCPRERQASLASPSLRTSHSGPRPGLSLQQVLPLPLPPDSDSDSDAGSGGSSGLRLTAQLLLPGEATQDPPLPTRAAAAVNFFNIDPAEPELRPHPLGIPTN
# Method: HEK293 cells with a stable expression of human 5-HT1A, 5-HT6, 5-HT7b, and D2L (prepared with the use of Lipofectamine 2000), or CHO-K1 cells with plasmids containing the sequence coding for the human serotonin 5-HT2A receptor (PerkinElmer), were maintained at 37 °C in a humidified atmosphere with 5% CO2 and grown in Dulbecco’s Modified Eagle Medium containing 10% dialyzed fetal bovine serum and 500 µg/mL G418 sulfate. For membrane preparation, cells were subcultured in 150 cm^2 flasks, grown to 90% confluence, washed twice with prewarmed to 37 °C phosphate buffered saline (PBS) and pelleted by centrifugation (200× g) in PBS containing 0.1 mM EDTA and 1 mM dithiothreitol. Prior to membrane preparation, the pellets were stored at −80 °C.
# Cell pellets were thawed and homogenized in 10 volumes of assay buffer using an Ultra Turrax tissue homogenizer, and were then centrifuged twice at 35,000× g for 15 min at 4 °C, with incubations for 15 min at 37 °C in between. […] The process of equilibration was terminated by rapid filtration through Unifilter plates with a 96-well cell harvester and the radioactivity retained on the filters was quantified on a Microbeta plate reader (PerkinElmer, Waltham, MA, USA). […] The inhibition constants (Ki) were calculated from the Cheng-Prusoff equation [38]. Results are expressed as means of two separate experiments.
Structure (SMILES),time spent in the center of the arena in OFT (anxiety level) (C57BL/6 mice [1]),number of total line crossings in OFT (locomotor activity) (C57BL/6 mice [1]),immobility time in TST (C57BL/6 mice [2]),Ki (human 5-HT6) [nM],"time spent in the center in OFT, co-administration of RAM (C57BL/6 mice [1]; ST-2300 10 mg/kg i.p. co-administered with RAM 10 mg/kg i.p.)","immobility time in TST, co-administration of RAM (C57BL/6 mice [2]; ST-2300 10 mg/kg i.p. co-administered with H3R agonist RAM 10 mg/kg i.p., vs ST-2300 alone)"
"CC(C)COc1ccc(CNC(=O)N(Cc2ccc(F)cc2)C2CCN(C)CC2)cc1 [Pimavanserin, reference compound]",failed to provide any appreciable effects on the anxiety levels,did not alter the number of total line crossings,failed to affect the overall immobility time,59 ± 11,,
"CN1CCC(N(Cc2ccc(F)cc2)C(=O)NCc2ccc(OCCCN3CCCCC3)cc2)CC1 [ST-2300, 1-(4-Fluorobenzyl)-1-(1-methylpiperidin-4-yl)-3-{4-[3-(piperidin-1-yl)propoxy]benzyl}urea]",dose-dependent increase of time spent in the center of the arena,did not alter the number of total line crossings,significantly reduced the immobility time,> 10000,could not be reversed by co-administration with RAM,reversed by systemic co-administration with the CNS-penetrant H3R agonist RAM
